Measured values published in article PMC5554889, “Development of a Potent Inhibitor of the Plasmodium Proteasome with Reduced Mammalian Toxicity” (Journal of Medicinal Chemistry, 2017).
Values belong to the compound of their own block, whether it stands above or below them.

Key:
[1] = test system: ABC16-Monster S. cerevisiae; experiment: microbe, parasite or virus in culture; assay type: cell-based; conditions: Saccharomyces cerevisiae
HepG2 cells = experiment: HepG2 cytotoxicity assay; assay type: cell-based, human; conditions: D-amino acid at P3; comparator not given
Dd2 parasites = experiment: Artemisinin IC50 with proteasome inhibitor co-treatment, 72 h SYBR green assay; assay type: cell-based; conditions: Plasmodium falciparum
Experimental: Compound susceptibility was measured using the malaria SYBR green I-based fluorescence assay.[39] Asynchronous P. falciparum parasites (Dd2 strain) were cultured in standard conditions before being plated for the assays. Each compound was tested over 72 h in technical duplicates on a 12-point concentration curve prepared by 3-fold dilution from 6.7 μM to 0.11 nM. At least three independent experiments were carried out for IC50 determination. Artemisinin and chloroquine were used as controls. IC50 values were obtained using normalized fluorescence intensity from SYBR green I and analyzed via nonlinear variable slope four-parameter regression curve-fitting model in Prism 6 (GraphPad Software Inc.).

Compound: CCCCCC(=O)N[C@H](C(=O)N[C@@H](CCS(C)(=O)=O)C(=O)N[C@@H](CC(C)C)C(=O)[C@@]1(C)CO1)C(C)C [Carmaphycin B, carmaphycin B]
- IC50 ([1]; GM (parental ABC16-Monster strain), n=4): 24300 nM
- IC50 ([1]; resistant Lineage 1): > 150000 nM
- IC50 ([1]; resistant Lineage 2, n=4): 52700 nM
- IC50 ([1]; resistant Lineage 3): > 100000 nM

Compound: CCCCCC(=O)N[C@H](Cc1c[nH]c2ccccc12)C(=O)N[C@@H](CCCC)C(=O)N[C@@H](CC(C)C)C(=O)[C@@]1(C)CO1 [analog 19]
- fold reduced toxicity (HepG2 cells): up to 100 fold

- IC50 (Dd2 parasites; DD2, Art + 0.5 nM Analog 18, n = 2): 11 nM
- IC50 (Dd2 parasites; DD2, Art + 0.5 nM CarB, n = 2): 13.5 nM
- IC50 (Dd2 parasites; DD2, Art + 1.0 nM Analog 18, n = 2): 7.5 nM
- IC50 (Dd2 parasites; DD2, Art + 1.0 nM CarB, n = 2): 7 nM
- IC50 (Dd2 parasites; DD2, Art only, Figure 3B, mean ± SEM, n = 2): 23.5 nM
- IC50 (Dd2 parasites; DD2, Art only, Figure 3C, mean ± SEM, n = 2): 19 nM
- IC50 (Dd2 parasites; DD2, artemisinin alone, wild-type artemisinin-sensitive Dd2 parasites, span of both experiments): 19 to 23.5 nM
Compound: C[C@@H]1CC[C@H]2[C@@H](C)C(=O)O[C@@H]3O[C@@]4(C)CC[C@@H]1[C@]32OO4 [artemisinin]
